“Also recorded” adds a separate entry of the source. Read-outs that look alike come from different tables or passages of the source.
Experiments:
[1] = system: cancer cell lines (HepG2, Hep3B, HeLa, HK1, C666-1); test: cells; assay type: cell-based, human; details: for anti-proliferative (anticancer) activity, in words: 48 hrs
Protocol: (§1) For testing the anti-proliferation activity of the compounds in human cell lines and calculation of IC50, cancer cells including HepG2, HeLa and Hep3B (4×10^5 cells/well) and normal L-02 cells (5×10^5 cells/well) were respectively seeded in 96-well plates in 100 μl of culture medium and incubated for about 12 hrs at 37° C. The cells were treated with two-fold serial dilutions of the drugs for 48 hrs. Medium was removed and 100 μl of culture medium containing 1 μM WST-1 (water soluble tetrazolium-1) were added to each well. The cells were incubated for 2 hrs, and absorbance at 405 nm (reference at 630 nm) was then measured. To construct the standard curve of the relationship between cell number and absorbance at OD405, serial dilutions of cells with known cell numbers were seeded and incubated for six hrs before being measured by the WST-1 assay. The cell viability was expressed as the ratio of the number of live cells treated with a candidate compound versus that of the DMSO-treated cells.
(§2) To further test 17beta-Deacetyltanghinin and to determine the IC50 values, besides L-02 and HepG2, Hep3B (another liver cancer cell line which is p53-negative), HeLa (cervical cancer cell line), HK1 and C666-1 (nasopharyngeal carcinoma) cells and a hTert-immortalized normal nasopharyngeal cell line (NP460) were treated by 17beta-Deacetyltanghinin for 48 hrs, and the relative cell vabilities were determined by WST-1 assay (FIG. 2B, C).

[2] = target: T1, hMcm2-hMcm6 interaction (MCM complex) (Homo sapiens, UniProt P49736+Q14566); test: Co-immunoprecipitation of MCM subunits in HeLa cell extracts; assay type: cell-based; details: asynchronous HeLa cells, whole cell extracts
T1 construct: endogenous in cells; host or cells: HeLa
T1 sequence (P49736 2-904 limits assumed): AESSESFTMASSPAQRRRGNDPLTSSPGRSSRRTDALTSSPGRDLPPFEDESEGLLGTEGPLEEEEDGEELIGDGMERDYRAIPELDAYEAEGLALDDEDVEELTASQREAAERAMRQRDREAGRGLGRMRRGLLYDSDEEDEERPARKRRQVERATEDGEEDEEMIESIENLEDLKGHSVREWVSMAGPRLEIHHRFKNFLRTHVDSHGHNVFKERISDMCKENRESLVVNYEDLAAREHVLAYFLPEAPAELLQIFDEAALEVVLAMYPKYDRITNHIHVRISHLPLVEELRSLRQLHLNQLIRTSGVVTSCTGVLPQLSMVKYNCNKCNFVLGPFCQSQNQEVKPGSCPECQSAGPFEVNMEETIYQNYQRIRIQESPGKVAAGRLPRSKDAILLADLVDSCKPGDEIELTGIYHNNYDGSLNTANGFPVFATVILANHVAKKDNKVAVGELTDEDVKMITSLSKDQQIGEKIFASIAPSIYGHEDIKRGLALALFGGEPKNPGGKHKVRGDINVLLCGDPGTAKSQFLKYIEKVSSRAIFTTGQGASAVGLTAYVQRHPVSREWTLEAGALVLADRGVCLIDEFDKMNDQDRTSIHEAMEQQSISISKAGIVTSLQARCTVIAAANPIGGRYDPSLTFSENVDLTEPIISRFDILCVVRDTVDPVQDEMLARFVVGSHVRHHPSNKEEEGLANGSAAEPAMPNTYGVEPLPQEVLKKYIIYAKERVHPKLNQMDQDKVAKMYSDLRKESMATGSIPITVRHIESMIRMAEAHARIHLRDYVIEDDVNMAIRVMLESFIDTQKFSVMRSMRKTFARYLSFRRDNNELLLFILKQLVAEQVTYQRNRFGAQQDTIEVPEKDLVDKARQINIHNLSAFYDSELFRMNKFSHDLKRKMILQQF
T1 sequence (Q14566 whole entry): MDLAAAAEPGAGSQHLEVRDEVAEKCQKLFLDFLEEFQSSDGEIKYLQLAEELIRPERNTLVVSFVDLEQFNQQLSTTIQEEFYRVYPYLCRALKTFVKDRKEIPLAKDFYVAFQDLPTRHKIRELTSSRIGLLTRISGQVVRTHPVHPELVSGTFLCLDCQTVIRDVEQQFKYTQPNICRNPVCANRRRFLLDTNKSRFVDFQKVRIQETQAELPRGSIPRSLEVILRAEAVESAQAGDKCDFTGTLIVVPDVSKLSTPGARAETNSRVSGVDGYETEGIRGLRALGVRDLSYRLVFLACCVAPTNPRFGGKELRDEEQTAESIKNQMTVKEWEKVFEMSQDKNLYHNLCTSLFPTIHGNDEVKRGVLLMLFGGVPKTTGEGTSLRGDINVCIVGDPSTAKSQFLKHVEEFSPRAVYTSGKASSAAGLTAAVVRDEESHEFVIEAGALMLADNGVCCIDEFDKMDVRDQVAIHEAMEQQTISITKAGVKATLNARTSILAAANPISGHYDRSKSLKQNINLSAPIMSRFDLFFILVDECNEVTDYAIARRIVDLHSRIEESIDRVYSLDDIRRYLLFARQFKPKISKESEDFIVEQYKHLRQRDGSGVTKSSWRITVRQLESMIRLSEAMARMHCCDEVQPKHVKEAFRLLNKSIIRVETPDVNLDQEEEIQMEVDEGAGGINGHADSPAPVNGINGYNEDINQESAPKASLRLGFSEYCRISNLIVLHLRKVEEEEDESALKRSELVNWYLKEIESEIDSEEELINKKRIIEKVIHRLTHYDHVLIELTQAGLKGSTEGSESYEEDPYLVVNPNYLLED
Protocol: To test if 17beta-Deacetyltanghinin targets hMcm2 and hMcm6 proteins in human cells, possible co-immunoprecipitation (co-IP) of the two proteins was tested in human cell extracts from cells treated with 17beta-Deacetyltanghinin. In FIG. 3, asynchronous HeLa cells were treated with DMSO or 17beta-Deacetyltanghinin (DAT) (FIG. 3A), or with DMSO, 17beta-Neriifolin (NRF) or 17beta-Deacetyltanghinin diol (Diol) (FIG. 3B), and whole cell extracts were prepared and further incubated with the compound before being used for co-IP in the presence of the compound. The immunoprecipitates were then immunoblotted with anti-hMcm 6, anti-hMcm2, anti-hMcm4 and anti-hMcm7 antibodies.

hMcm2 and hMcm6 = target: T2, hMcm2 and hMcm6 (Homo sapiens, UniProt P49736+Q14566); test: Immunostaining / GFP fluorescence microscopy of MCM nuclear localization in HeLa cells; assay type: cell-based; details: 24 hrs
T2 construct: the endogenous hMcm2 and hMcm6 were detected by specific antibodies against these proteins; endogenous in cells; host or cells: HeLa
T2 sequence (P49736 2-904): as the sequence (P49736 2-904 limits assumed) above
T2 sequence (Q14566 whole entry): as the sequence (Q14566 whole entry) above
Protocol: To study the effect of the anticancer compounds on the interaction between hMcm2 and hMcm6 in the cells, immunostaining was performed to detect the sub-cellular localization of the proteins. HeLa cells grown on cover slips (coated with poly-D-lysine) with or without drug treatment were fixed with 4% PFA in PBS at room temperature for 20 min. After permeabilization with 0.1% Triton X-100 and 1% BSA in PBS for 20 min, cells were blocked with 1% BSA and then incubated with rabbit anti-hMcm6 (Santa Cruz; 1:500) and mouse anti-hMcm2 (Becton Dickinson; 1:500) primary antibodies at room temperature for 1 hr. Cells were then incubated with Alexa Fluor 488-conjugated donkey […] antibody and Alexa Fluor 594-conjugated donkey anti-mouse antibody (Invitrogen; 1:500) at room temperature for 1 hr. Three washes with PBS were performed after each round of antibody incubation. Cells were then incubated with Hochest 33852 (Sigma Chemical Company; 1 μg/ml) at room temperature for 15 min for nuclear staining and washed with PBS three times again. At last, cells were mounted and observed under the fluorescence microscope (Nikon TE2000E).
Because pair-wise interactions among the MCM subunits are required for the MCM heterohexameric ring structure, which is essential for their import into the nucleus, disruption of the interaction between hMcm2 and hMcm6 should destroy the hexamer and result in failure of nuclear localization of MCM proteins. To test this, we employed both indirect fluorescence microscopy (immunostaining) using antibodies against the endogenous MCM proteins and direct fluorescence microscopy after transfection with plasmids to express hMcm2-GFP and hMcm6-GFP in the cells.
In immunostaining, HeLa cells were treated by 17beta-Deacetyltanghinin for 24 hrs, and the endogenous hMcm2 and hMcm6 were detected by specific antibodies against these proteins. […] In direct fluorescence microscopy, HeLa cells expressing hMcm2-GFP and hMcm6-GFP were treated with 17beta-Deacetyltanghinin for 36 hrs starting at 4 hrs post-transfection with the plasmids expressing hMcm2-GFP and hMcm6-GFP.

[3] = system: cancer cells (HeLa, HepG2); test: Flow cytometry / Annexin V staining (cell cycle, apoptosis) in cancer cells; assay type: cell-based, human; details: cancer cells
Protocol: Both floating and attached cells were collected and washed once with PBS. Cells were fixed in 70% ethanol for 1 hr to overnight at −20° C., washed thoroughly with PBS, and then stained in 50 μg/ml RNase A, 0.1% Triton X-100, 0.1 mM EDTA (pH 7.4), and 50 μg/ml propidium iodide for 30 min at 4° C. Samples were analyzed with the FACSort instrument (Becton Dickinson).
Moreover, inhibition of DNA replication and subsequent induction of apoptosis by 17beta-Deacetyltanghinin could be shown by flow cytometry. In FIG. 7. Hela cells were blocked at M phase by Nocodazole (Noc.; FIG. 7A), the G1/S transition by mimosine (MMS; FIG. 7B), or at early S phase by Hydroxyurea (HU; FIG. 7C) and then released into fresh medium in the presence of 17beta-Deacetyltanghinin (DAT). The cells at different time points after release were analyzed by follow cytometry. Ayn. means asynchronous cells. Untreated cells and cells treated with the solvent DMSO could complete M, G1 and S phases after release (FIG. 7A). […] Similarly, cells released from the Mimosine (MMS) arrest (at the G1/S transition; FIG. 7B) or Hydroxyurea (HU) arrest (in early S phase; FIG. 7C) could not finish S phase in the presence of 17beta-Deacetyltanghinin.
In FIG. 8A, flow cytometry was performed to analyze the DNA contents in HepG2 and L-02 cells treated with 17beta-Deacetyltanghinin at various concentrations for 24 hrs. In FIG. 8B, Hela cells were treated with 17beta-Deacetyltanghinin for 24 hrs and labeled with Annexin V-Cy3 (Arm. Cy3) for 20 min. Mitoxantrone (MTX), a clinical anticancer drug that can induce apoptosis in cancer cells, was used as a positive control.

[4] = system: L-02 cells (normal human liver cells); test: in vitro; details: compound 0.5 ∝g/ml; WST-1
Protocol: as §1
(§3) A pair of human cell lines, L-02 (normal liver cells) and HepG2 (a liver cancer cell line) was treated with 17beta-Deacetyltanghinin for 48 hrs. […] In FIG. 2B-H, quantification of viable cell numbers was carried out using WST-1 (Water-soluble tetrazolium-1) assay.
as §2

[5] = system: HepG2 cells (hepatocellular carcinoma); details: compound 0.5 ∝g/ml; WST-1
in vitro = details: human
Protocol: as §1, §3, §2

[6] = system: HeLa cells xenograft tumors; test: In vivo anticancer activity, nude mice xenograft model; details: 10 mg/kg per injection, first 10 days
Protocol: In vivo anticancer activity tests were carried out in the nude mice xenograft model by inoculating nude mice with HeLa cells in both the left and right flanks. After random grouping, nude mice were treated intraperitoneally with 17beta-Deacetyltanghinin or the solvent (30% of propylene glycol in PBS). In the first test, 3 days after tumor inoculation when small tumors started to form, two groups of nude mice were treated on days 1-3 and 6-10 with 3.5 and 7.0 mg-drug/kg-body weight of 17beta-Deacetyltanghinin respectively, and another group of control mice were treated with the same volume of the solvent (FIG. 10A). In FIG. 10A, the tumor volume data represented by the small-size data point symbol linked with thin lines were obtained on the days when both measurement of tumor size and drug injections were performed, and the tumor volume data represented by the large-size data point symbol linked with thick lines were obtained on the days without drug injection. Each tumor size was average of ten tumors in five mice in each group.
(§4) A further set of animal experiments was then conducted with a longer period of time, in which fifteen drug injections at 5.0 mg/kg were performed one week after tumor inoculation when the tumor size reached 0.05-0.1 cm^3. In FIG. 10B, drug injections and tumor size measurements were performed on the days represented by the data points, and the photographs in FIG. 10C were taken on day 20.

[7] = In vivo toxicity assessment in nude mice; details: 10 mg/kg per injection, tumor-bearing nude mice
Protocol: as §4
In FIG. 11, S refers to solvent-treated mice without tumor inoculation; S+T represents solvent-treated mice with tumor inoculation; DAT refers to 17beta-Deacetyltanghinin-treated mice without tumor inoculation; DAT+T represents 17beta-Deacetyltanghinin-treated mice with tumor inoculation; and P+T refers to Paelitaxel-treated mice with tumor inoculation. Three out of the five mice with intermediate tumor size in each group were selected for physiological parameters examination. The tumors (T) and internal organs including liver (L), heart (H) and kidney (K) were dissected from each mouse.
Furthermore, blood from each mouse was also collected for the tests of the ALT (alanine aminotransferase) and LDH (Lactate dehydrogenase) activities. […] The results of both tests were represented as the values of differently treated mice relative to the untreated ones.

## 17beta-Deacetyltanghinin diol
[1]; WST-1 assay
  anti-proliferative (anticancer) activity, in words: lower anticancer activity than 17beta-Deacetyltanghinin
[2]
  disruption of hMcm2-hMcm6 interaction (co-IP): weaker activity
hMcm2 and hMcm6
  nuclear localization of endogenous hMcm2 and hMcm6 (immunostaining): weaker activity
[3]
  induction of apoptosis (sub-G1 population, flow cytometry): able to induce apoptosis of cancer cells

## CO[C@H]1[C@H](O)[C@H](O[C@H]2CC[C@@]3(C)[C@@H](C2)C[C@@H]2O[C@]24[C@@H]3CC[C@]2(C)[C@H](C3=CC(=O)OC3)CC[C@]42O)O[C@@H](C)[C@@H]1O [17alpha-Deacetyltanghinin, reference compound]
[4]
  L-02 cell viability (%): 100%
[1]; WST-1 assay
  anti-proliferative (anticancer) activity, in words: little anti-proliferative activity
[5]
  HepG2 cell viability (%): 97.2%

## CO[C@H]1[C@H](O)[C@H](O[C@H]2CC[C@@]3(C)[C@H](CC[C@@H]4[C@@H]3CC[C@]3(C)[C@H](C5=CC(=O)OC5)CC[C@]43O)C2)O[C@@H](C)[C@@H]1O [17alpha-Neriifolin, reference compound]
[4]
  L-02 cell viability (%): 100%
[1]; WST-1 assay
  anti-proliferative (anticancer) activity, in words: little anti-proliferative activity
[5]
  HepG2 cell viability (%): 100%

## CO[C@H]1[C@H](O)[C@H](O[C@H]2CC[C@@]3(C)[C@H](CC[C@@H]4[C@@H]3CC[C@]3(C)[C@@H](C5=CC(=O)OC5)CC[C@]43O)C2)O[C@@H](C)[C@@H]1O [17beta-Neriifolin]
[2]
  disruption of hMcm2-hMcm6 interaction (co-IP): could also disrupt the hMcm2-hMcm6 interaction
hMcm2 and hMcm6
  nuclear localization of endogenous hMcm2 and hMcm6 (immunostaining): as efficiently as 17beta-Deacetyltanghinin
[3]
  induction of apoptosis (sub-G1 population, flow cytometry): able to induce apoptosis of cancer cells

## C[C@]12CC[C@H](O)C[C@H]1CC[C@@H]1[C@@H]2CC[C@]2(C)[C@@H](c3ccc(=O)oc3)CC[C@]12O [Bufalin]
In vitro
  viability: 37.2%
[5]
  HepG2 cell viability (%): 13.7%

## CC(=O)O[C@H]1[C@H]2O[C@]23[C@@H]2CC[C@@H]4C[C@@H](O)CC[C@]4(C)[C@H]2CC[C@]3(C)[C@H]1c1ccc(=O)oc1 [Cinobufagin]
In vitro
  viability: 39.7%
[5]
  HepG2 cell viability (%): 1.5%

## CC(=O)O[C@H]1C(=O)[C@@]2(C)[C@H]([C@H](OC(=O)c3ccccc3)[C@]3(O)C[C@H](OC(=O)[C@H](O)[C@@H](NC(=O)c4ccccc4)c4ccccc4)C(C)=C1C3(C)C)[C@]1(OC(C)=O)CO[C@@H]1C[C@@H]2O [Paclitaxel, reference compound]
[1]
  selectivity between cancer and normal cells, in words: did not show significant selectivity; also recorded: more toxic to normal liver cells than liver cancer cells
[6]
  antitumor activity compared with 17beta-Deacetyltanghinin, in words: much less antitumor activities
[7]
  mortality from toxicity: the mice died on day 10

## C[C@]12CC[C@H](O)C[C@H]1CC[C@@H]1[C@@H]2CC[C@]2(C)[C@@H](c3ccc(=O)oc3)C[C@H]3O[C@]132 [Resibufogenin]
In vitro
  viability: 37.9%
[5]
  HepG2 cell viability (%): 1.4%

## COc1cc([C@@H]2c3cc4c(cc3[C@@H](O[C@@H]3O[C@@H]5CO[C@@H](C)O[C@H]5[C@H](O)[C@H]3O)[C@H]3COC(=O)[C@H]23)OCO4)cc(OC)c1OP(=O)(O)O [VP16, Etoposide phosphate]
[1]; cancer vs normal cells, WST-1 assay
  selectivity between cancer and normal cells, in words: did not show significant selectivity

Reference: patent US11648258B2, “Method and compounds for inhibiting the MCM complex and their application in cancer treatment” (priority 2012, dated 2023)
